Assay [1] deals with T1, Protein kinase C beta type (Homo sapiens, UniProt P05771). Description: Inhibitory concentration against recombinant human Protein kinase C beta 1 isozyme.
The target in assay [2] is Protein kinase C delta type (Homo sapiens, UniProt Q05655). Nature of the assay: Inhibitory concentration against recombinant human Protein kinase C delta isozyme.
The target in assay [3] is Protein kinase C gamma type (Homo sapiens, UniProt P05129). Nature of the assay: Inhibitory concentration against recombinant human Protein kinase C gamma isozyme.
In assay [4] the target is T1, Protein kinase C beta type. Nature of the assay: Inhibitory concentration against recombinant human Protein kinase C beta 2 isozyme.
The target of assay [5] is Protein kinase C alpha type (Homo sapiens, UniProt P17252). Description: Inhibitory concentration against recombinant human Protein kinase C alpha isozyme.
The target in assay [6] is T2, Protein kinase C epsilon type (Homo sapiens, UniProt Q02156).
T2 sequence (Q02156 whole entry): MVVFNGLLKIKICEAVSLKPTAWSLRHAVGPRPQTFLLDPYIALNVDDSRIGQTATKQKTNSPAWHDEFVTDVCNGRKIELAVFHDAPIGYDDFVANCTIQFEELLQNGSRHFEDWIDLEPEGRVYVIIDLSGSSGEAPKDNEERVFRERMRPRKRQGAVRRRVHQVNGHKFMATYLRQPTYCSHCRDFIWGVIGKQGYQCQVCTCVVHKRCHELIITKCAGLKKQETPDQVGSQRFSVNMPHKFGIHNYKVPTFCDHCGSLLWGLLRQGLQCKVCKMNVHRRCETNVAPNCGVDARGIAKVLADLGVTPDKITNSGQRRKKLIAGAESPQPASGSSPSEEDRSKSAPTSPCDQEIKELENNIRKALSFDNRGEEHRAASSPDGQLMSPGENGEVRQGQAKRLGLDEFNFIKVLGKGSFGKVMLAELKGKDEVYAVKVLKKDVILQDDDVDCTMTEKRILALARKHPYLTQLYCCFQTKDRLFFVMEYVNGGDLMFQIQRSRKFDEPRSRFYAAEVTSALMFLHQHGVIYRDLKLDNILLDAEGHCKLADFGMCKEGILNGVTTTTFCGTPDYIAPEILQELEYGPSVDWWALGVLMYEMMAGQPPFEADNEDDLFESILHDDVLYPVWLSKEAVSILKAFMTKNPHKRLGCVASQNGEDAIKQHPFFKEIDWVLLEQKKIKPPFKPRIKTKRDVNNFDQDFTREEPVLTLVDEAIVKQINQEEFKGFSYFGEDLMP
Description: Inhibitory concentration against recombinant human Protein kinase C epsilon isozyme.

Assay [7] has as its target Protein kinase C eta type (Homo sapiens, UniProt P24723). Description: Inhibitory concentration against recombinant human Protein kinase C eta isozyme.
Assay [8] deals with cAMP-dependent protein kinase catalytic subunit alpha (Homo sapiens, UniProt P17612). Nature of the assay: Inhibitory concentration against recombinant human cAMP-dependent Protein kinase A.
The target of assay [9] is T3, Protein kinase C zeta type (Homo sapiens, UniProt Q05513).
T3 sequence (Q05513 whole entry): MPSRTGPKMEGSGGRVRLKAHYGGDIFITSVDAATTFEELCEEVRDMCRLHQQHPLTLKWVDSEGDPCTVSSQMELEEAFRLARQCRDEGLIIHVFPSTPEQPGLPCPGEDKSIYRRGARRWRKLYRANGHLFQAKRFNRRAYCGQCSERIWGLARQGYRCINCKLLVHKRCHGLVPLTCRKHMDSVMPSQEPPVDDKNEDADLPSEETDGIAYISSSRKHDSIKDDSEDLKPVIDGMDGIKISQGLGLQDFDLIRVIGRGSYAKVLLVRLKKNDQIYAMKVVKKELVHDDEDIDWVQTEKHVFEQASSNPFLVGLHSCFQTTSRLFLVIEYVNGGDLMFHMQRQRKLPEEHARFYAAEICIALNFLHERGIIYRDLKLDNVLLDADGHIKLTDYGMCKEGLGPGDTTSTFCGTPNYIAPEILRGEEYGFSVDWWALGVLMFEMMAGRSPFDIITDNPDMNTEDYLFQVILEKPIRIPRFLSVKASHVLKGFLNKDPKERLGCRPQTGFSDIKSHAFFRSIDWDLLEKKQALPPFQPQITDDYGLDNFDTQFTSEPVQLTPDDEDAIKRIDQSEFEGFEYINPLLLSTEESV
Description: Inhibitory concentration against recombinant human Protein kinase C zeta isozyme.

T1 sequence (P05771 whole entry): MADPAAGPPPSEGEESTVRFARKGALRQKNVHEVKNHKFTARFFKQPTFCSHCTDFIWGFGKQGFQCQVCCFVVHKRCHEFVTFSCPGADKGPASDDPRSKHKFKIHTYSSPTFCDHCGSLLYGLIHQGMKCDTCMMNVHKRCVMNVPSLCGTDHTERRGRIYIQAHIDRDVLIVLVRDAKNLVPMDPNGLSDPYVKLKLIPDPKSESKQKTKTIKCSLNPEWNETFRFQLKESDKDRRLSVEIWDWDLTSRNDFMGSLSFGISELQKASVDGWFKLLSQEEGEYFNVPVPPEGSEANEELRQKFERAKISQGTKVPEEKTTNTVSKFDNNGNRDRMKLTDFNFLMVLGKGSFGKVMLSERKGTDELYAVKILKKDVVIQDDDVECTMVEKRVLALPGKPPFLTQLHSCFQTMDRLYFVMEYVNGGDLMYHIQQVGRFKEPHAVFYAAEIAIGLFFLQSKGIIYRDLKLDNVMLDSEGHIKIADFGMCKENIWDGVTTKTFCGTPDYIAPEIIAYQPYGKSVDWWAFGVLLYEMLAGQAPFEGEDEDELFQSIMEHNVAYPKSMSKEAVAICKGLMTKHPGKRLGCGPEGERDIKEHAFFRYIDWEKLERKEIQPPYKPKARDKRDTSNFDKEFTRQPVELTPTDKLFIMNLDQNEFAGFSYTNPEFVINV
Chain of Protein kinase C eta type (P24723 whole entry): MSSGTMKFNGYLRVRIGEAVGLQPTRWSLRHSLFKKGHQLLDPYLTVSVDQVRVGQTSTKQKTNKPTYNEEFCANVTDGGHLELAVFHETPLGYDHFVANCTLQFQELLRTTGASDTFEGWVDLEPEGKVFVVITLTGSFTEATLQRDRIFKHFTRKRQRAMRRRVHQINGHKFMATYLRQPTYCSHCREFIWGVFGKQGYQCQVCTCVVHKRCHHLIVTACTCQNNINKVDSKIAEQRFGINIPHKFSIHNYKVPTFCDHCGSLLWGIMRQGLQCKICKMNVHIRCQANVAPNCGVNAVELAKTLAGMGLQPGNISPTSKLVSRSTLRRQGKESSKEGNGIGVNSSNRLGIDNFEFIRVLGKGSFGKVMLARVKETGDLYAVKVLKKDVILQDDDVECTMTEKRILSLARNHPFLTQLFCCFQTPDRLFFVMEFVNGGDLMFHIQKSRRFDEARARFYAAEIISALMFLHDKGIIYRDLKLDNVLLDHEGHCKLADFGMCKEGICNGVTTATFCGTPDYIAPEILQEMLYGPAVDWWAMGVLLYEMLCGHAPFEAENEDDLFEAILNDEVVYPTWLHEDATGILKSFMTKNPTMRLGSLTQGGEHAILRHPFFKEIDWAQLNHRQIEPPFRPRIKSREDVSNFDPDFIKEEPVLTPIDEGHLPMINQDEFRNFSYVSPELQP
Chain of Protein kinase C delta type (Q05655 whole entry): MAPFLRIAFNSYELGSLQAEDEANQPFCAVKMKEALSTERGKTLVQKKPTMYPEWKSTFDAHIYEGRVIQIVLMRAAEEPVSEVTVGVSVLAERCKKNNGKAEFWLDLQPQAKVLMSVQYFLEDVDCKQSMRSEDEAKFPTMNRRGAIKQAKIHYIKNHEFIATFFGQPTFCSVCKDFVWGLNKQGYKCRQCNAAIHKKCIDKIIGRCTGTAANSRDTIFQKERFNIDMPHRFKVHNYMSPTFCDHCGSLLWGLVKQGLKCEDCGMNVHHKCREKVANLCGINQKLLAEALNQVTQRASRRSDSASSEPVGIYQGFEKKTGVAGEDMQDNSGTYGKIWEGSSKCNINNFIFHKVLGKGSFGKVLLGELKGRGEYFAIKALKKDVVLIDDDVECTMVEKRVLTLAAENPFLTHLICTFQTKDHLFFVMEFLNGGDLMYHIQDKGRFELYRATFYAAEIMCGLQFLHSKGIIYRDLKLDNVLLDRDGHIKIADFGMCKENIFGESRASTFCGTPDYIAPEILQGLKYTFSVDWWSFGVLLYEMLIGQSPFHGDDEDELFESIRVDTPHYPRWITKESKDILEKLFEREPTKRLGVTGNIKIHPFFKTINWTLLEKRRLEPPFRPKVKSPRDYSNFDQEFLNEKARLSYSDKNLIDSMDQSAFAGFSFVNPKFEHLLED

By IC50 is commonly meant the concentration at which inhibition is half-maximal. On to `COC(=O)N1C[C@@H](NC(=O)c2ccc(O)cc2)[C@H](OC(=O)c2cc(O)c(C(=O)c3c(O)cccc3C(=O)O)c(O)c2)C1`, for which the half-inhibitory concentration (IC50) in [1] came to 810 nM; in [2] it was 100 nM; in [3], 540 nM; in assay [4], 2700 nM; in assay [5], 540 nM; in assay [6], 4800 nM. For the same compound, the values for the IC50 in [7], in assay [8] and in [9] were 90 nM, 13000 nM and greater than 150000 nM, respectively.

Regarding `CNC(=O)N1C[C@@H](NC(=O)c2ccc(O)cc2)[C@H](OC(=O)c2cc(O)c(C(=O)c3c(O)cccc3C(=O)O)c(O)c2)C1`, the IC50 amounted to 680 nM in [1]; 40 nM in assay [2]; 410 nM in assay [3]; 1800 nM in [4]; 2200 nM in assay [5]; 3600 nM in [6]. The results for the IC50 in assay [7], in assay [8] and in assay [9] were 130 nM, 3000 nM and greater than 50000 nM, respectively.

Turning to `CC1(C)C2CCC1(C)[C@@H](OC(=O)c1cc(O)c(C(=O)c3c(O)cccc3C(=O)O)c(O)c1)[C@@H]2NC(=O)c1ccc(O)cc1` (stereo not given in full), the IC50 in assay [1] amounted to 310 nM; in assay [2] it was 340 nM; in [3] it was 210 nM; in [4], 80 nM; in assay [5] it was 410 nM; in assay [6], 3600 nM. Further, the concentration for half-maximal inhibition (IC50) in [7] was 310 nM; in assay [8] it was 26000 nM; in assay [9] it was greater than 50000 nM.

Take `CS(=O)(=O)N1C[C@@H](NC(=O)c2ccc(O)cc2)[C@H](OC(=O)c2cc(O)c(C(=O)c3c(O)cccc3C(=O)O)c(O)c2)C1`: the IC50 in [1] stood at 330 nM; in assay [2], 35 nM; in [3], 400 nM; in [4], 350 nM; in assay [5] it was 910 nM; in assay [6] it was 1300 nM. Besides, the IC50 in assay [7] was 62 nM; in [8], 4500 nM; in assay [9] it was greater than 150000 nM.

`N[C@@H]1C[C@@H](NC(=O)c2ccc(O)cc2)[C@H](OC(=O)c2cc(O)c(C(=O)c3c(O)cccc3C(=O)O)c(O)c2)C1`: the IC50 in assay [1] was 4 nM; in [2] it was 5 nM; in [3] it was 5 nM; in assay [4], 2 nM; in assay [5] it was 20 nM; in assay [6], 10 nM. Besides, the IC50 was 3 nM in assay [7], 50 nM in assay [8] and 1200 nM in assay [9].

The values above are taken from ChEMBL document CHEMBL1130164 (J Med Chem, 1997).
